Measurements: ChEMBL document CHEMBL1124495 (1989)
In brackets after ≈: the same amount, converted by molar mass.

How the values were obtained:
Assay type in all cases: functional
Escherichia coli [1] = experiment: Antibacterial activity carried out in vitro against Escherichia coli #311(MP)
Escherichia coli [2] = experiment: Antibacterial activity carried out in vitro against Escherichia coli ATCC 25922
Escherichia coli [3] = experiment: Antibacterial activity carried out in vitro against Escherichia coli MOR 84-20
Enterobacter cloacae = experiment: Antibacterial activity carried out in vitro against Enterobacter cloacae VHG 84-39
Klebsiella pneumoniae = experiment: Antibacterial activity carried out in vitro against Klebsiella pneumoniae CMC 84-31
Pseudomonas aeruginosa = experiment: Antibacterial activity carried out in vitro against Pseudomonas aeruginosa K84-16
Serratia marcescens = experiment: Antibacterial activity carried out in vitro against Serratia marcescens MOR 84-41
Staphylococcus aureus [4] = experiment: Antibacterial activity carried out in vitro against Staphylococcus aureus ATCC 29213
Staphylococcus aureus [5] = experiment: Antibacterial activity carried out in vitro against Staphylococcus aureus K82-26
Staphylococcus aureus [6] = experiment: Antibacterial activity carried out in vitro against Staphylococcus aureus Smith(MP)
Staphylococcus aureus [7] = experiment: Antibacterial activity carried out in vitro against Staphylococcus aureus VGH 84-47
Enterococcus faecalis = experiment: Antibacterial activity carried out in vitro against Streptococcus faecalis UCI 85-30

SMILES	MIC (Escherichia coli [1])	MIC (Escherichia coli [2])	MIC (Escherichia coli [3])	MIC (Enterobacter cloacae)	MIC (Klebsiella pneumoniae)	MIC (Pseudomonas aeruginosa)	MIC (Serratia marcescens)	MIC (Staphylococcus aureus [4])	MIC (Staphylococcus aureus [5])	MIC (Staphylococcus aureus [6])	MIC (Staphylococcus aureus [7])	MIC (Enterococcus faecalis)
CCn1cc(C(=O)O)c(=O)c2c(F)c(F)c(N3CCSCC3)c(F)c21	4 µg/mL (≈ 10.7 µM)	4 µg/mL (≈ 10.7 µM)	4 µg/mL (≈ 10.7 µM)	8 µg/mL (≈ 21.5 µM)	8 µg/mL (≈ 21.5 µM)	64 µg/mL (≈ 172 µM)	2 µg/mL (≈ 5.37 µM)	1 µg/mL (≈ 2.69 µM)	1 µg/mL (≈ 2.69 µM)	0.5 µg/mL (≈ 1.34 µM)	1 µg/mL (≈ 2.69 µM)	32 µg/mL (≈ 85.9 µM)
CCn1cc(C(=O)O)c(=O)c2c(N3CCCC3)c(F)c(N3CCCC3)c(F)c21	128 µg/mL (≈ 327 µM)	> 128 µg/mL	> 128 µg/mL	> 128 µg/mL	> 128 µg/mL	> 128 µg/mL	> 128 µg/mL	> 128 µg/mL	8 µg/mL (≈ 20.4 µM)	128 µg/mL (≈ 327 µM)	8 µg/mL (≈ 20.4 µM)	> 128 µg/mL
CCn1cc(C(=O)O)c(=O)c2c(N3CCN(C)CC3)c(F)c(F)c(F)c21	> 128 µg/mL	> 128 µg/mL	> 128 µg/mL	> 128 µg/mL	> 128 µg/mL	> 128 µg/mL	> 128 µg/mL	> 128 µg/mL	> 128 µg/mL	> 128 µg/mL	> 128 µg/mL	> 128 µg/mL
CCn1cc(C(=O)O)c(=O)c2cc(F)c(N3CCN(C)CC3)c(F)c21	0.06 µg/mL (≈ 0.171 µM)	0.06 µg/mL (≈ 0.171 µM)	0.12 µg/mL (≈ 0.342 µM)	0.25 µg/mL (≈ 0.712 µM)	0.25 µg/mL (≈ 0.712 µM)	4 µg/mL (≈ 11.4 µM)	0.12 µg/mL (≈ 0.342 µM)	0.5 µg/mL (≈ 1.42 µM)	0.5 µg/mL (≈ 1.42 µM)	0.5 µg/mL (≈ 1.42 µM)	0.5 µg/mL (≈ 1.42 µM)	8 µg/mL (≈ 22.8 µM)
O=C(O)c1cn(C2CC2)c2cc(N3CCNCC3)c(F)cc2c1=O [CIPROFLOXACIN]					0.03 µg/mL (≈ 0.0905 µM)		0.008 µg/mL (≈ 0.0241 µM)	1 µg/mL (≈ 3.02 µM)	0.5 µg/mL (≈ 1.51 µM)	0.12 µg/mL (≈ 0.362 µM)	1 µg/mL (≈ 3.02 µM)	2 µg/mL (≈ 6.04 µM)
CCn1cc(C(=O)O)c(=O)c2c(F)c(F)c(N3CCN(C)CC3)c(F)c21	0.25 µg/mL (≈ 0.677 µM)	0.12 µg/mL (≈ 0.325 µM)	0.25 µg/mL (≈ 0.677 µM)	0.5 µg/mL (≈ 1.35 µM)	0.5 µg/mL (≈ 1.35 µM)	32 µg/mL (≈ 86.6 µM)	0.25 µg/mL (≈ 0.677 µM)	2 µg/mL (≈ 5.42 µM)	2 µg/mL (≈ 5.42 µM)	2 µg/mL (≈ 5.42 µM)	2 µg/mL (≈ 5.42 µM)	32 µg/mL (≈ 86.6 µM)
